Results as given in PubChem BioAssay AID1259407 (Chemical Carcinogenesis Research Information System (CCRIS), 2018).
Active and inactive are the calls of the source. The rule behind the calls is not given here.

Test system: CCRIS mutagenicity, Ames/micronucleus/aberration tests
Experiment: CCRIS mutagenicity studies
[1] = Test System: AMES SALMONELLA TYPHIMURIUM, Strain/Indicator: TA98, Metabolic Activation: NONE, Method: STANDARD PLATE
[2] = Test System: AMES SALMONELLA TYPHIMURIUM, Strain/Indicator: TA98, Metabolic Activation: RAT, LIVER, S-9, Method: STANDARD PLATE
[3] = Test System: AMES SALMONELLA TYPHIMURIUM, Strain/Indicator: TA100, Metabolic Activation: NONE, Method: STANDARD PLATE
[4] = Test System: AMES SALMONELLA TYPHIMURIUM, Strain/Indicator: TA100, Metabolic Activation: RAT, LIVER, S-9, Method: STANDARD PLATE

With CC[C@H]1OC(=O)[C@H](C)[C@@H](O[C@H]2C[C@@](C)(OC)[C@@H](O)[C@H](C)O2)[C@H](C)[C@@H](O[C@@H]2O[C@H](C)C[C@H](N(C)C)[C@H]2O)[C@](C)(O)C[C@@H](C)CN(C)[C@H](C)[C@@H](O)[C@]1(C)O the mutagenic call (Test System: AMES SALMONELLA TYPHIMURIUM, Strain/Indicator: TA98, Metabolic Activation: MOUSE, LIVER, S-9, AROCLOR 1254, Method: STANDARD PLATE) was “inactive; negative”, the mutagenic call (Test System: AMES SALMONELLA TYPHIMURIUM, Strain/Indicator: TA98, Metabolic Activation: MOUSE, LIVER, S-9, Method: STANDARD PLATE) was “inactive; negative” and the mutagenic call [1] was “inactive; negative”. For the same compound, the mutagenic call (Test System: AMES SALMONELLA TYPHIMURIUM, Strain/Indicator: TA98, Metabolic Activation: RAT, LIVER, S-9, AROCLOR 1254, Method: STANDARD PLATE) was “inactive; negative”, the mutagenic call [2] was “inactive; negative” and the mutagenic call (Test System: AMES SALMONELLA TYPHIMURIUM, Strain/Indicator: TA100, Metabolic Activation: MOUSE, LIVER, S-9, AROCLOR 1254, Method: STANDARD PLATE) was “inactive; negative”. The mutagenic call (Test System: AMES SALMONELLA TYPHIMURIUM, Strain/Indicator: TA100, Metabolic Activation: MOUSE, LIVER, S-9, Method: STANDARD PLATE) was “inactive; negative”, the mutagenic call [3] was “inactive; negative” and the mutagenic call (Test System: AMES SALMONELLA TYPHIMURIUM, Strain/Indicator: TA100, Metabolic Activation: RAT, LIVER, S-9, AROCLOR 1254, Method: STANDARD PLATE) was “inactive; negative”. The mutagenic call [4] was “inactive; negative”, the mutagenic call (Test System: AMES SALMONELLA TYPHIMURIUM, Strain/Indicator: TA1535, Metabolic Activation: MOUSE, LIVER, S-9, AROCLOR 1254, Method: STANDARD PLATE) was “inactive; negative” and the mutagenic call (Test System: AMES SALMONELLA TYPHIMURIUM, Strain/Indicator: TA1535, Metabolic Activation: MOUSE, LIVER, S-9, Method: STANDARD PLATE) was “inactive; negative”. For the same compound, the mutagenic call (Test System: AMES SALMONELLA TYPHIMURIUM, Strain/Indicator: TA1535, Metabolic Activation: NONE, Method: STANDARD PLATE) was “inactive; negative”, the mutagenic call (Test System: AMES SALMONELLA TYPHIMURIUM, Strain/Indicator: TA1535, Metabolic Activation: RAT, LIVER, S-9, AROCLOR 1254, Method: STANDARD PLATE) was “inactive; negative” and the mutagenic call (Test System: AMES SALMONELLA TYPHIMURIUM, Strain/Indicator: TA1535, Metabolic Activation: RAT, LIVER, S-9, Method: STANDARD PLATE) was “inactive; negative”. For the same compound, the mutagenic call (Test System: AMES SALMONELLA TYPHIMURIUM, Strain/Indicator: TA1537, Metabolic Activation: MOUSE, LIVER, S-9, AROCLOR 1254, Method: STANDARD PLATE) was “inactive; negative”, the mutagenic call (Test System: AMES SALMONELLA TYPHIMURIUM, Strain/Indicator: TA1537, Metabolic Activation: MOUSE, LIVER, S-9, Method: STANDARD PLATE) was “inactive; negative” and the mutagenic call (Test System: AMES SALMONELLA TYPHIMURIUM, Strain/Indicator: TA1537, Metabolic Activation: NONE, Method: STANDARD PLATE) was “inactive; negative”. The mutagenic call (Test System: AMES SALMONELLA TYPHIMURIUM, Strain/Indicator: TA1537, Metabolic Activation: RAT, LIVER, S-9, AROCLOR 1254, Method: STANDARD PLATE) was “inactive; negative”, the mutagenic call (Test System: AMES SALMONELLA TYPHIMURIUM, Strain/Indicator: TA1537, Metabolic Activation: RAT, LIVER, S-9, Method: STANDARD PLATE) was “inactive; negative” and the mutagenic call (Test System: MOUSE LYMPHOMA, Strain/Indicator: L5178Y (TK+/TK-), Metabolic Activation: NONE, Method: SUSPENSION/PLATE) was “inactive; negative”. For the same compound, the mutagenic call (Test System: MOUSE LYMPHOMA, Strain/Indicator: L5178Y (TK+/TK-), Metabolic Activation: RAT, LIVER, S-9, Method: SUSPENSION/PLATE) was “inactive; negative”.

With COc1cccc2c1C(=O)c1c(O)c3c(c(O)c1C2=O)C[C@@](O)(C(=O)CO)C[C@@H]3O[C@H]1C[C@H](N)C[C@H](C)O1 the mutagenic call (Test System: AMES SALMONELLA TYPHIMURIUM, Strain/Indicator: GW257, Metabolic Activation: NONE, Method: STANDARD PLATE) was “active; positive”, the mutagenic call [1] was “active; positive” and the mutagenic call [3] was “active; positive”. The mutagenic call (Test System: AMES SALMONELLA TYPHIMURIUM, Strain/Indicator: TA1538, Metabolic Activation: NONE, Method: STANDARD PLATE) was “active; positive”, the mutagenic call (Test System: CHINESE HAMSTER V-79, Strain/Indicator: V-79/6-THIOGUANINE, Metabolic Activation: NONE, Method: SUSPENSION/PLATE) was “active; positive” and the mutagenic call (Test System: CHINESE HAMSTER V-79, Strain/Indicator: V-79/6-THIOGUANINE, Metabolic Activation: RAT, LIVER, HOMOGENATE, Method: SUSPENSION/PLATE) was “inactive; negative”.

With Cc1cc2c(c3cc4ccccc4cc13)C=C[C@H](O)[C@H]2O the mutagenic call (Test System: AMES SALMONELLA TYPHIMURIUM, Strain/Indicator: TA100, Metabolic Activation: RAT, LIVER, S-9, AROCLOR 1254, Method: PREINCUBATION) was “active; positive”.

With O=[N+]([O-])c1c2ccccc2cc2ccccc12 the mutagenic call (Test System: AMES SALMONELLA TYPHIMURIUM, Strain/Indicator: TA98, Metabolic Activation: HAMSTER, LIVER, S-9, AROCLOR 1254 (30%), Method: PREINCUBATION) was “active; positive”, the mutagenic call (Test System: AMES SALMONELLA TYPHIMURIUM, Strain/Indicator: TA98, Metabolic Activation: NONE, Method: PREINCUBATION) was “active; positive” and the mutagenic call [1] was “active; positive”. The mutagenic call (Test System: AMES SALMONELLA TYPHIMURIUM, Strain/Indicator: TA98, Metabolic Activation: RAT, LIVER, S-9, AROCLOR 1254 (10%), Method: PREINCUBATION) was “active; positive”, the mutagenic call (Test System: AMES SALMONELLA TYPHIMURIUM, Strain/Indicator: TA98, Metabolic Activation: RAT, LIVER, S-9, AROCLOR 1254 (30%), Method: PREINCUBATION) was “active; positive” and the mutagenic call [2] was “active; positive”. The mutagenic call (Test System: AMES SALMONELLA TYPHIMURIUM, Strain/Indicator: TA100, Metabolic Activation: HAMSTER, LIVER, S-9, AROCLOR 1254 (30%), Method: PREINCUBATION) was “active; positive”, the mutagenic call (Test System: AMES SALMONELLA TYPHIMURIUM, Strain/Indicator: TA100, Metabolic Activation: NONE, Method: PREINCUBATION) was “active; positive” and the mutagenic call [3] was “inactive; negative”. For the same compound, the mutagenic call (Test System: AMES SALMONELLA TYPHIMURIUM, Strain/Indicator: TA100, Metabolic Activation: RAT, LIVER, S-9, AROCLOR 1254 (10%), Method: PREINCUBATION) was “active; positive”, the mutagenic call (Test System: AMES SALMONELLA TYPHIMURIUM, Strain/Indicator: TA100, Metabolic Activation: RAT, LIVER, S-9, AROCLOR 1254 (30%), Method: PREINCUBATION) was “active; positive” and the mutagenic call [4] was “inactive; negative”.

With [N-]=[N+]=NC[C@H](O)c1ccccc1 the mutagenic call (Test System: AMES SALMONELLA TYPHIMURIUM, Strain/Indicator: TA100, Metabolic Activation: RAT, LIVER, S-9, PCB, Method: PREINCUBATION) was “active; positive”.

O=C(N=c1sn(C(=O)c2ccccc2[N+](=O)[O-])c2ccc([N+](=O)[O-])cc12)c1ccccc1[N+](=O)[O-] was tested, and the mutagenic call (Test System: AMES SALMONELLA TYPHIMURIUM, Strain/Indicator: TA100, Metabolic Activation: S-9, Method: STANDARD PLATE) was “active; positive”.

In the case of CN(N=O)C(=O)Oc1cccc2c1OC(C)(C)C2, the mutagenic call (End Point: IN VIVO MICRONUCLEUS, Test System: BONE MARROW POLYCHROMATIC ERYTHROCYTES, Species: MOUSE, Strain/Sex: KM/MALE, FEMALE, Route: IP INJECTION) is reported as “active; positive”.
